Where a name gives a salt, the structure may show the parent alone.
Assays:
[1] = tested on: Cdc2 (Cdk1) tyrosine 15-phosphorylation in WiDr cells; assay: Cdc2 (Cdk1) tyrosine 15-phosphorylation-inhibitory effect in gemcitabine-treated WiDr cells (ELISA); assay type: cell-based; details: Homo sapiens, gemcitabine 100 nM 24 hours, then test compound + nocodazole 8 hours, read-out: Cdc2-Y15 Phosphorylation-Inhibitory Effect (WiDr, + gemcitabine) (EC50)
Source text: Pharmacological Test 2 (Method of Determining Drug Potency with Cells (Cdc2 (Cdk1) Tyrosine 15-Phosphorylation-Inhibitory Effect))
Fetal bovine serum (FBS) was obtained from Morgate; media RPMI1640 and DMEM were from Invitrogen; camptothecin was from Sigma; gemcitabine was from Nippon Eli Lilly; nocodazole and protease inhibitor cocktail were from Sigma; rabbit anti-Cdc2 antibody and mouse anti-Cdc2 antibody were from Santa Cruz Biotechnology; rabbit anti-tyrosine 15-phosphorylated Cdc2 antibody and horseradish peroxidase-labeled anti-mouse IgG antibody were from Cell Signaling Technology; sure blue reserve TMB peroxidase substrate was from Kirkegaard and Perry Laboratories.
Human non-small cell lung cancer cells (NCI-H1299) and human colon cancer cells (WiDr) were obtained from American Type Culture Collection (ATCC).
In the method of using WiDr cells, the cells were suspended in a medium of 10% FBS-added DMEM, and the cell suspension was applied to a 96-well Nunclondelta-processed plastic plate in an amount of 2000 cells/100 μL/well, in which the cells were incubated overnight in 5% CO2-95% air at 37° C. […] Cdc2 was determined through ELISA as follows: A rabbit anti-Cdc2 antibody solution, which had been diluted 200-fold with 50 mM carbonate-bicarbonate buffer (pH 9.6), was applied to a 96-well maxisorp plastic plate in an amount of 50 μL/well, and statically kept overnight at 4° C. so as to fix the antibody on the plate. […] Then, 1 M hydrochloric acid was added to it in an amount of 100 μL/well to stop the reaction, and this was analyzed through colorimetry. Tyrosine 15-phosphorylated Cdc2 was determined through ELISA as follows: A rabbit anti-tyrosine 15-phosphorylated Cdc2 antibody solution, which had been diluted 100-fold with 50 mM carbonate-bicarbonate buffer (pH 9.6), was applied to a 96-well maxisorp plastic plate in an amount of 50 μL/well, and statically kept overnight at 4° C. so as to fix the antibody on the plate. […]

[2] = tested on: Human colon cancer cells WiDr; assay: Tumor growth inhibitory effect, WiDr subcutaneous xenograft in nude rats; assay type: in vivo, F344/N Jcl-rnu nude rats; details: gemcitabine 5 mg/kg i.v. days 0, 7, 14, Example 1 15 mg/kg oral days 1, 8, 15, n=5
Description: Pharmacological Test 4 (Tumor Growth Inhibitory Effect)
Human colon cancer cells WiDr (obtained from ATCC) were implanted into the subcutaneous area of the back of F344/N Jcl-rnu nude rats. 12 days after the implantation, 5 mg/kg of gemcitabine (Gemzar, from Eli Lily) was intravenously administered to them; and after 24 hours, a test compound suspended in a solvent (0.5% methyl cellulose) was orally administered thereto. This was repeated once a week for 3 weeks. The tumor volume (0.5×major diameter×(minor diameter)^2) was measured on days 0, 3, 6, 10, 13, 17, 20, 24 and 27 (the first gemcitabine administration is on day 0). The relative tumor volume was calculated, based on the tumor volume on day 0, as 1. The tumor growth rate (% T/C) was obtained according to the formulae mentioned below.
In case where the tumor volume change from day 0 in the test compound administration group is more than 0 (>0): % T/C=(tumor volume change in the test compound group on days 3, 6, 10, 13, 17, 20, 24 and 27/tumor volume change in the control group on days 3, 6, 10, 13, 17, 20, 24 and 27)×100. In case where the tumor volume change from day 0 in the test compound administration group is less than 0 (<0): % T/C=(tumor volume change in the test compound group on days 3, 6, 10, 13, 17, 20, 24 and 27/tumor volume […] in the test compound group on day 0)×100.
Gemcitabine was administered on days 0, 7 and 14. The compound of Example 1 was administered on days 1, 8 and 15.

Compound | EC50 [1] [nM] | % T/C day 3 ([2]; day 3) [%] | % T/C day 6 ([2]; day 6) [%] | % T/C day 10 ([2]; day 10) [%] | % T/C day 13 ([2]; day 13) [%] | % T/C day 17 ([2]; day 17) [%] | % T/C day 20 ([2]; day 20) [%] | % T/C day 24 ([2]; day 24) [%] | % T/C day 27 ([2]; day 27) [%]
CN1Cc2cc(Nc3ncc4c(=N)n(-c5c(Cl)cccc5Cl)c(=O)[nH]c4n3)ccc2C(C)(C)C1 [Example 2, 3-(2,6-dichlorophenyl)-4-imino-7-{[2,4,4-trimethyl-1,2,3,4-tetrahydroisoquinolin-7-yl]amino}-3,4-dihydropyrimido[4,5-d]pyrimidin-2(1H)-one] | 46 | – | – | – | – | – | – | – | –
CN1Cc2cc(Nc3ncc4c(=N)n(-c5c(Cl)cccc5Cl)c(=O)[nH]c4n3)ccc2C1(C)C [Example 7, 3-(2,6-dichlorophenyl)-4-imino-7-[(1,1,2-trimethyl-2,3-dihydro-1H-isoindol-5-yl)amino]-3,4-dihydropyrimido[4,5-d]pyrimidin-2(1H)-one] | 24 | – | – | – | – | – | – | – | –
CN1Cc2cc(Nc3ncc4c(=N)n(-c5c(Cl)cccc5Cl)c(=O)[nH]c4n3)ccc2C2(CC2)C1 [Example 1, 3-(2,6-dichlorophenyl)-4-imino-7-[(2′-methyl-2′,3′-dihydro-1′H-spiro[cyclopropane-1,4′-isoquinolin]-7′-yl)amino]-3,4-dihydropyrimido[4,5-d]pyrimidin-2(1H)-one dihydrochloride] | 21 | 107 | 100 | 87 | 91 | 88 | 85 | 83 | 88

— US8436004B2, “Bicycloaniline derivative” (MSD K.K., priority 2007, dated 2013)
